Our source for the EC50 and CC50 values is patent US20230295201A1 (Gilead Sciences, Inc., priority 2020, published 2023).

Data set [1] deals with HRV16. Kind of data set: HRV16 HELA EC50 (cytopathic effect in H1-HeLa cells). Format: cell-based. The following applies: 96 h, read-out: HRV16 HELA EC50. Summed up:
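Read-out is luminescent cell viability (CellTiter-Glo) after 96 h of infection at 33 °C, scaled between uninfected and infected-untreated wells. Before infection with titrated virus, compounds went onto H1-HeLa cells as triplicate 3-fold dilution series.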
On the technique in general: Cytopathic effects are the visible damage that an infection or toxin causes in cultured cells.

Data set [2] has as its system RSV strain A2. The data set can be described thus: RSV HEp-2 EC50 (infectious cytopathic cell protection assay). The following applies: human respiratory syncytial virus, HEp-2, 96 h, read-out: RSV HEp-2 EC50. Format: cell-based. An outline of the steps: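 Percent inhibition of RSV-induced cytopathic effect came from remaining cell viability (CellTiter-Glo luminescence) after 4 days at 37° C. Compounds in 3-fold serial dilutions were exposed to an infectious mix of titered A2 virus and HEp-2 cells at 50,000/ml, with 0% and 100% inhibition control standards.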

The nature of data set [3]: HEp-2 CC50 (cytotoxicity, Cell-Titer Glo). Type of data set: cell-based. The following applies: human; uninfected HEp-2 cells, 4-5 days. As for the experimental part:
The same protocol as for the determination of antiviral activity is used for the measurement of compound cytotoxicity except that the cells are not infected with RSV. Instead, an uninfected cell mixture at the same density is added at 20 ul/well to plates containing prediluted compounds, also at 100 nL/sample. Assay plates are then incubated for 4 days followed by a cell viability test using the same CellTiter Glo reagent addition and measurement of luminescent readouts.

Data set [4] relates to RSV A2. The data set can be described thus: RSV NHBE EC50 (RSV A2 antiviral assay in normal human bronchial epithelial cells). Type of data set: cell-based. The following applies: human respiratory syncytial virus, NHBE, 96 h, read-out: RSV NHBE EC50.
Data set [5] has as its system DENV2 replicon. Kind of data set: DENV-2 Huh-7 Rep EC50 (replicon luminescence). The following applies: Dengue virus, DENV2, Huh-7, 48 h, read-out: DENV-2 Huh-7 Rep EC50. Type of data set: cell-based. Summed up: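 EC50 derived from luminescence dose-response, normalised to DMSO-only 0% inhibition wells, after 1.5 h with EnduRen substrate. Compounds were first exposed for 48 h at 37° C to DENV2 replicon Huh-7 cells (5,000/well).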
Background: Replicon systems follow genome replication, usually without infectious particles.

The nature of data set [6]: in vitro. Particulars: human.
Experimental: (§1) HEp-2 (1.5×10^3 cells/well) and MT-4 (2×10^3 cells/well) cells were plated in 384-well plates and incubated with the appropriate medium containing 3-fold serially diluted compound ranging from 15 nM to 100,000 nM. Cells were cultured for 4-5 days at 37° C. Following the incubation, the cells were allowed to equilibrate to 25° C., and cell viability was determined by adding Cell-Titer Glo viability reagent. The mixture was incubated for 10 min, and the luminescence signal was quantified using an Envision plate reader. Untreated cell and cells treated at 2 μM puromycin (Sigma, St. Louis, MO) serve as 100% and 0% cell viability control, respectively.
Data set [7] in a line: in vitro. Particulars: human. This is another data set of the same source.
The nature of data set [8]: HELA CC50 (cytotoxicity). The following applies: human, HeLa cells.
The nature of data set [9]: MT4 CC50 (cytotoxicity, Cell-Titer Glo). Particulars: human.
Experimental: as §1

Where two headings read alike, the source gives them in different places.

As a reminder, the EC50 is the concentration at which the effect is half-maximal.

For `CC(C)C(=O)O[C@H]1[C@H](c2ccc3c(N)ncnn23)O[C@](C#N)(CO[P@@](=O)(N[C@@H](C)C(=O)OC2CCCCC2)Oc2ccccc2)[C@H]1O` (single isomer, unassigned) [Example 205], the EC50 in data set [1] (H1-HeLa cells, 33° C.) turned out to be 417 nM; in data set [2] (HEp-2 cells, RSV A2, 4 days) it was 101 nM; in data set [4] (NHBE cells, RSV A2, 4 days), 27 nM; in data set [5] (Huh-7 replicon cells, 48 hours) it was 6100 nM. The CC50 in [3] was found to be 58600 nM.

In the case of `CC(C)C(=O)O[C@H]1[C@@H](O)[C@H](c2ccc3c(N)ncnn23)O[C@]1(C#N)CO[P@@](=O)(N[C@@H](C)C(=O)OC1CCCCC1)Oc1ccccc1` (single isomer, unassigned) [Example 206], the concentration giving a half-maximal response (EC50) was 85 nM in [2] (HEp-2 cells, RSV A2, 4 days) and 62 nM in [4] (NHBE cells, RSV A2, 4 days). The results for the CC50 in data set [6] and in [3] were 16600 nM and 55200 nM, respectively.

For `CC(C)OC(=O)[C@H](C)N[P@](=O)(OC[C@@]1(C#N)O[C@@H](c2ccc3c(N)ncnn23)[C@H](OC(=O)C(C)(C)C)[C@@H]1O)Oc1ccccc1` (single isomer, unassigned) [Example 238], the EC50 in [1] (H1-HeLa cells, 33° C.) was 731 nM; in data set [2] (HEp-2 cells, RSV A2, 4 days), 91 nM; in [4] (NHBE cells, RSV A2, 4 days) it was 41 nM; in data set [5] (Huh-7 replicon cells, 48 hours) it was 9710 nM. The CC50 in data set [7] is greater than 50000 nM; in data set [6], 45000 nM; in data set [3] it was greater than 50000 nM.

With `CC(C)OC(=O)[C@H](C)N[P@](=O)(OC[C@@]1(C#N)O[C@@H](c2ccc3c(N)ncnn23)[C@H](O)[C@@H]1OC(=O)C(C)(C)C)Oc1ccccc1` (single isomer, unassigned) [Example 239], the half-maximal effective concentration (EC50) in data set [1] (H1-HeLa cells, 33° C.) was 1120 nM; in [2] (HEp-2 cells, RSV A2, 4 days), 148 nM; in [4] (NHBE cells, RSV A2, 4 days) it was 54 nM; in [5] (Huh-7 replicon cells, 48 hours), 25400 nM. The CC50 in data set [7], in [6] and in [3] was greater than 50000 nM in each case.

As to `CC(C)OC(=O)[C@H](C)N[P@](=O)(OC[C@@]1(C#N)O[C@@H](c2ccc3c(N)ncnn23)[C@H](OC(=O)C(C)C)[C@@H]1O)Oc1ccccc1` (single isomer, unassigned) [Example 240], the EC50 turned out to be 1310 nM in data set [1] (H1-HeLa cells, 33° C.); 166 nM in [2] (HEp-2 cells, RSV A2, 4 days); 190 nM in data set [4] (NHBE cells, RSV A2, 4 days); 10600 nM in data set [5] (Huh-7 replicon cells, 48 hours). Further, the CC50 in data set [7], in data set [6] and in data set [3] was greater than 50000 nM in each case.

`CC(C)OC(=O)[C@H](C)N[P@](=O)(OC[C@@]1(C#N)O[C@@H](c2ccc3c(N)ncnn23)[C@H](O)[C@@H]1OC(=O)C(C)C)Oc1ccccc1` (single isomer, unassigned) [Example 241]: the EC50 in data set [2] (HEp-2 cells, RSV A2, 4 days) was found to be 293 nM; in data set [4] (NHBE cells, RSV A2, 4 days) it was 190 nM; in [5] (Huh-7 replicon cells, 48 hours) it was 15500 nM. For the same compound, the CC50 in data set [6] and in data set [3] was greater than 50000 nM each time.

For `CCOC(=O)c1ccccc1OP1(=O)OC[C@@]2(C#N)O[C@@H](c3ccc4c(N)ncnn34)[C@H](OC(=O)CC)[C@@H]2O1` (stereo partly drawn) [Example 230], the CC50 in [8], in [3] and in data set [9] was greater than 50000 nM throughout. For the same compound, the half-maximal effective concentration (EC50) was 11500 nM in data set [1], 1650 nM in data set [2], greater than 5000 nM in [4] and greater than 50000 nM in data set [5].

Consider `CCOC(=O)[C@H](C)N[P@](=O)(OC[C@@]1(C#N)O[C@@H](c2ccc3c(N)ncnn23)[C@@H]2OC(OCC)O[C@@H]21)Oc1ccccc1` (stereo partly drawn) [Example 233, ethyl ((S)-(((3aS,4R,6S,6aS)-6-(4-aminopyrrolo[2,1-f][1,2,4]triazin-7-yl)-4-cyano-2-ethoxytetrahydrofuro[3,4-d][1,3]dioxol-4-yl)methoxy)(phenoxy)phosphoryl)-L-alaninate], for which the concentration giving a half-maximal response (EC50) was 3350 nM in data set [1] (H1-HeLa cells, 33° C.); 1750 nM in data set [2] (HEp-2 cells, RSV A2, 4 days); greater than 4640 nM in data set [4] (NHBE cells, RSV A2, 4 days); 35800 nM in data set [5] (Huh-7 replicon cells, 48 hours). Further, the CC50 in data set [3] was greater than 50000 nM.

Consider `COC(=O)[C@H](C)N[P@](=O)(OC[C@@]1(C#N)O[C@@H](c2ccc3c(N)ncnn23)[C@H](OC(=O)C(C)C)[C@@H]1O)Oc1ccccc1` [Example 250, (2S,3R,4S,5R)-2-(4-aminopyrrolo[2,1-f][1,2,4]triazin-7-yl)-5-cyano-4-hydroxy-5-((((S)—(((S)-1-methoxy-1-oxopropan-2-yl)amino)(phenoxy)phosphoryl)oxy)methyl)tetrahydrofuran-3-yl isobutyrate], for which the EC50 in data set [1] (H1-HeLa cells, 33° C.) amounted to 1180 nM; in [2] (HEp-2 cells, RSV A2, 4 days) it was 69 nM; in data set [4] (NHBE cells, RSV A2, 4 days), 51 nM. In [3], this compound came in with a CC50 greater than 50000 nM.
